Activity coefficient data for 28 compounds are collected here from the NIST ThermoML archive (doi:10.1016/j.jct.2018.01.003).

A short description of this series: activity coefficient (dimensionless); of the first substance listed, at infinite dilution; xn = mol fraction of the nth substance listed. To be noted: 101.33 kPa, Liquid, Chromatography, x1 = 0.

The structures appear in SMILES notation. Numbers after ± are expanded uncertainties.

With `CCCCO` [butan-1-ol] + CCCCCCCCCCCCCC[P+](CCCCCC)(CCCCCC)CCCCCC.N#CC(=C=[N-])C#N, the activity coefficient by setting is: (328.15 K) 0.424 ± 0.035; (338.15 K) 0.435 ± 0.035; (348.15 K) 0.445 ± 0.036; (358.15 K) 0.455 ± 0.036; (368.15 K) 0.464 ± 0.036.
As to `Cc1ccccc1` [toluene] + CCCCCCCCCCCCCC[P+](CCCCCC)(CCCCCC)CCCCCC.N#CC(=C=[N-])C#N, the activity coefficient stood at 0.558 ± 0.04 (328.15 K); 0.585 ± 0.041 (338.15 K); 0.611 ± 0.043 (348.15 K); 0.635 ± 0.044 (358.15 K); 0.656 ± 0.045 (368.15 K).
The corresponding values for `C1COCCO1` [1,4-dioxane] + CCCCCCCCCCCCCC[P+](CCCCCC)(CCCCCC)CCCCCC.N#CC(=C=[N-])C#N are 0.578 ± 0.041, 0.594 ± 0.042, 0.608 ± 0.043, 0.628 ± 0.043 and 0.642 ± 0.044.
The matching figures for `Cc1ccccc1C` [1,2-dimethylbenzene] + CCCCCCCCCCCCCC[P+](CCCCCC)(CCCCCC)CCCCCC.N#CC(=C=[N-])C#N: 0.646 ± 0.044, 0.677 ± 0.046, 0.706 ± 0.047, 0.734 ± 0.049 and 0.76 ± 0.05.
The corresponding values for `C#CCCC` [1-pentyne] + CCCCCCCCCCCCCC[P+](CCCCCC)(CCCCCC)CCCCCC.N#CC(=C=[N-])C#N are 0.76 ± 0.05, 0.797 ± 0.052, 0.832 ± 0.054, 0.863 ± 0.055 and 0.893 ± 0.057.
As for `CCC[N+](=O)[O-]` [1-nitropropane] + CCCCCCCCCCCCCC[P+](CCCCCC)(CCCCCC)CCCCCC.N#CC(=C=[N-])C#N, the activity coefficient runs as follows: (338.15 K) 0.557 ± 0.04; (348.15 K) 0.566 ± 0.041; (358.15 K) 0.577 ± 0.041; (368.15 K) 0.585 ± 0.041.
For the compound `C=Cc1ccccc1` [styrene] + CCCCCCCCCCCCCC[P+](CCCCCC)(CCCCCC)CCCCCC.N#CC(=C=[N-])C#N, the activity coefficient worked out at 0.496 ± 0.038 (328.15 K); 0.52 ± 0.039 (338.15 K); 0.544 ± 0.04 (348.15 K); 0.57 ± 0.041 (358.15 K); 0.593 ± 0.042 (368.15 K).
Take `COC(C)(C)C` [2-methoxy-2-methylpropane] + CCCCCCCCCCCCCC[P+](CCCCCC)(CCCCCC)CCCCCC.N#CC(=C=[N-])C#N: the activity coefficient (328.15 K) worked out at 0.946 ± 0.06; the activity coefficient (338.15 K) came to 0.99 ± 0.062; the activity coefficient (348.15 K) was 1.02 ± 0.06; the activity coefficient (358.15 K) amounted to 1.06 ± 0.07; the activity coefficient (368.15 K) is 1.1 ± 0.07.
In the case of `CCCC(C)=O` [pentan-2-one] + CCCCCCCCCCCCCC[P+](CCCCCC)(CCCCCC)CCCCCC.N#CC(=C=[N-])C#N, the activity coefficient runs as follows: (338.15 K) 0.459 ± 0.036; (348.15 K) 0.477 ± 0.037; (358.15 K) 0.502 ± 0.038; (368.15 K) 0.52 ± 0.039.
Turning to `C=CCCCCCCCC` [1-decene] + CCCCCCCCCCCCCC[P+](CCCCCC)(CCCCCC)CCCCCC.N#CC(=C=[N-])C#N, the activity coefficient turned out to be 2.32 ± 0.16 (328.15 K); 2.37 ± 0.16 (338.15 K); 2.41 ± 0.16 (348.15 K); 2.45 ± 0.17 (358.15 K); 2.49 ± 0.17 (368.15 K).
The matching figures for `Cc1cccc(C)c1` [1,3-dimethylbenzene] + CCCCCCCCCCCCCC[P+](CCCCCC)(CCCCCC)CCCCCC.N#CC(=C=[N-])C#N: 0.713 ± 0.048, 0.74 ± 0.049, 0.77 ± 0.05, 0.8 ± 0.052 and 0.826 ± 0.053.
The matching figures for `CCCCCCCCCC` [decane] + CCCCCCCCCCCCCC[P+](CCCCCC)(CCCCCC)CCCCCC.N#CC(=C=[N-])C#N: 3.09 ± 0.21, 3.1 ± 0.21, 3.1 ± 0.21, 3.1 ± 0.21 and 3.1 ± 0.21.
The corresponding values for `CCC(C)CC` [3-methylpentane] + CCCCCCCCCCCCCC[P+](CCCCCC)(CCCCCC)CCCCCC.N#CC(=C=[N-])C#N are 1.69 ± 0.11, 1.72 ± 0.12, 1.75 ± 0.12, 1.78 ± 0.12 and 1.8 ± 0.1.
`CC(C)OC(C)C` [diisopropyl ether] + CCCCCCCCCCCCCC[P+](CCCCCC)(CCCCCC)CCCCCC.N#CC(=C=[N-])C#N: the activity coefficient by setting is: (328.15 K) 1.5 ± 0.1; (338.15 K) 1.54 ± 0.1; (348.15 K) 1.58 ± 0.1; (358.15 K) 1.62 ± 0.11; (368.15 K) 1.66 ± 0.11.
The corresponding values for `COC(C)=O` [methyl ethanoate] + CCCCCCCCCCCCCC[P+](CCCCCC)(CCCCCC)CCCCCC.N#CC(=C=[N-])C#N are 0.65 ± 0.044, 0.669 ± 0.045, 0.685 ± 0.046, 0.704 ± 0.047 and 0.721 ± 0.048.
Turning to `CC(C)=O` [acetone] + CCCCCCCCCCCCCC[P+](CCCCCC)(CCCCCC)CCCCCC.N#CC(=C=[N-])C#N, the activity coefficient by setting is: (328.15 K) 0.454 ± 0.036; (338.15 K) 0.466 ± 0.036; (348.15 K) 0.477 ± 0.037; (358.15 K) 0.491 ± 0.037; (368.15 K) 0.503 ± 0.038.
The corresponding values for `CCCCCCCCC` [nonane] + CCCCCCCCCCCCCC[P+](CCCCCC)(CCCCCC)CCCCCC.N#CC(=C=[N-])C#N are 2.66 ± 0.18, 2.67 ± 0.18, 2.69 ± 0.18, 2.7 ± 0.18 and 2.71 ± 0.18.
With `CC(C)CO` [2-methyl-1-propanol] + CCCCCCCCCCCCCC[P+](CCCCCC)(CCCCCC)CCCCCC.N#CC(=C=[N-])C#N, the activity coefficient is, setting by setting: (328.15 K) 0.412 ± 0.034; (338.15 K) 0.418 ± 0.035; (348.15 K) 0.423 ± 0.035; (358.15 K) 0.429 ± 0.035; (368.15 K) 0.434 ± 0.035.
The matching figures for `CCCCC` [pentane] + CCCCCCCCCCCCCC[P+](CCCCCC)(CCCCCC)CCCCCC.N#CC(=C=[N-])C#N: 1.59 ± 0.11, 1.62 ± 0.11, 1.64 ± 0.11, 1.67 ± 0.11 and 1.69 ± 0.11.
The matching figures for `CCCC=O` [butanal] + CCCCCCCCCCCCCC[P+](CCCCCC)(CCCCCC)CCCCCC.N#CC(=C=[N-])C#N: 0.46 ± 0.036, 0.477 ± 0.037, 0.494 ± 0.038, 0.513 ± 0.038 and 0.533 ± 0.039.
For the compound `C#CCCCCC` [1-heptyne] + CCCCCCCCCCCCCC[P+](CCCCCC)(CCCCCC)CCCCCC.N#CC(=C=[N-])C#N, the activity coefficient is, setting by setting: (328.15 K) 0.938 ± 0.059; (338.15 K) 0.982 ± 0.062; (348.15 K) 1.03 ± 0.06; (358.15 K) 1.07 ± 0.07; (368.15 K) 1.11 ± 0.07.
The matching figures for `CCC(C)(C)OC` [2-methoxy-2-methylbutane] + CCCCCCCCCCCCCC[P+](CCCCCC)(CCCCCC)CCCCCC.N#CC(=C=[N-])C#N: 1.01 ± 0.06, 1.06 ± 0.07, 1.1 ± 0.07, 1.14 ± 0.07 and 1.18 ± 0.08.
The matching figures for `c1ccccc1` [benzene] + CCCCCCCCCCCCCC[P+](CCCCCC)(CCCCCC)CCCCCC.N#CC(=C=[N-])C#N: 0.459 ± 0.036, 0.481 ± 0.037, 0.5 ± 0.038, 0.519 ± 0.039 and 0.536 ± 0.039.
The matching figures for `CC(C)(C)O` [2-methylpropan-2-ol] + CCCCCCCCCCCCCC[P+](CCCCCC)(CCCCCC)CCCCCC.N#CC(=C=[N-])C#N: 0.492 ± 0.037, 0.503 ± 0.038, 0.513 ± 0.038, 0.526 ± 0.039 and 0.537 ± 0.039.
As to `C=CCCCCC` [1-heptene] + CCCCCCCCCCCCCC[P+](CCCCCC)(CCCCCC)CCCCCC.N#CC(=C=[N-])C#N, the activity coefficient by setting is: (328.15 K) 1.56 ± 0.1; (338.15 K) 1.6 ± 0.11; (348.15 K) 1.64 ± 0.11; (358.15 K) 1.67 ± 0.11; (368.15 K) 1.7 ± 0.11.
Regarding `CCC(C)(C)C` [2,2-dimethylbutane] + CCCCCCCCCCCCCC[P+](CCCCCC)(CCCCCC)CCCCCC.N#CC(=C=[N-])C#N, the activity coefficient reads like this: (328.15 K) 1.85 ± 0.12; (338.15 K) 1.87 ± 0.13; (348.15 K) 1.89 ± 0.13; (358.15 K) 1.91 ± 0.13; (368.15 K) 1.93 ± 0.13.
The matching figures for `O` [water] + CCCCCCCCCCCCCC[P+](CCCCCC)(CCCCCC)CCCCCC.N#CC(=C=[N-])C#N: 1.92 ± 0.13, 1.77 ± 0.12, 1.65 ± 0.11, 1.54 ± 0.1 and 1.44 ± 0.09.
The corresponding values for `CC1CCCCC1` [methylcyclohexane] + CCCCCCCCCCCCCC[P+](CCCCCC)(CCCCCC)CCCCCC.N#CC(=C=[N-])C#N are 1.32 ± 0.09, 1.33 ± 0.09, 1.35 ± 0.09, 1.36 ± 0.09 and 1.38 ± 0.09.
